Assay results as given in the kinase profiling compilation of Christmann-Franck et al. (2016).

Assays:
Experiment in all cases: KINOMEscan competition binding
Settings in all cases: compound 1.0 µM
STK17A (human) = STK17A (human) (UniProt Q9UEE5)
MAPK1 (human) = MAPK1 (human) (UniProt P28482)
AURKB (human) = AURKB (human) (UniProt Q96GD4)
OXSR1 (human) = OXSR1 (human) (UniProt O95747)
ERBB2 (human) = ERBB2 (human) (UniProt P04626)
MAP4K5 (human) = MAP4K5 (human) (UniProt Q9Y4K4)
STK3 (human) = STK3 (human) (UniProt Q13188)
KDR (human) = KDR (human) (UniProt P35968)
CIT (human) = CIT (human) (UniProt O14578)
NTRK1 (human) = NTRK1 (human) (UniProt P04629)
ICK (human) = ICK (human) (UniProt Q9UPZ9)
PRKD3 (human) = PRKD3 (human) (UniProt O94806)
[1] = system: FLT3 (human), P36888 [D835H]
ACVR1 (human) = ACVR1 (human) (UniProt Q04771)
PAK3 (human) = PAK3 (human) (UniProt O75914)
BTK (human) = BTK (human) (UniProt Q06187)
PAK4 (human) = PAK4 (human) (UniProt O96013)
SYK (human) = SYK (human) (UniProt P43405)
TLK2 (human) = TLK2 (human) (UniProt Q86UE8)
BMPR1B (human) = BMPR1B (human) (UniProt O00238)
[2] = target: TYK2 JH2 pseudokinase (human) (UniProt P29597)
[3] = target: JAK1 JH2 pseudokinase (human) (UniProt P23458)
PAK7 (human) = PAK7 (human) (UniProt Q9P286)
STK32B (human) = STK32B (human) (UniProt Q9NY57)
CSNK2A1 (human) = CSNK2A1 (human) (UniProt P68400)
RIOK1 (human) = RIOK1 (human) (UniProt Q9BRS2)
[4] = system: FLT3 (human), P36888 [K663Q]
MET (human) = MET (human) (UniProt P08581)
[5] = system: EGFR (human), P00533 [T790M/L858R]
ABL1 (human) = ABL1 (human) (UniProt P00519)
STK25 (human) = STK25 (human) (UniProt O00506)
AKT1 (human) = AKT1 (human) (UniProt P31749)
EPHB1 (human) = EPHB1 (human) (UniProt P54762)
TGFBR1 (human) = TGFBR1 (human) (UniProt P36897)
[6] = system: RET (human), P07949 [V804L]
MAPK3 (human) = MAPK3 (human) (UniProt P27361)
SLK (human) = SLK (human) (UniProt Q9H2G2)
PKMYT1 (human) = PKMYT1 (human) (UniProt Q99640)
TXK (human) = TXK (human) (UniProt P42681)
LYN (human) = LYN (human) (UniProt P07948)

MAPK3 (human), sequence (P27361 whole entry, looked up): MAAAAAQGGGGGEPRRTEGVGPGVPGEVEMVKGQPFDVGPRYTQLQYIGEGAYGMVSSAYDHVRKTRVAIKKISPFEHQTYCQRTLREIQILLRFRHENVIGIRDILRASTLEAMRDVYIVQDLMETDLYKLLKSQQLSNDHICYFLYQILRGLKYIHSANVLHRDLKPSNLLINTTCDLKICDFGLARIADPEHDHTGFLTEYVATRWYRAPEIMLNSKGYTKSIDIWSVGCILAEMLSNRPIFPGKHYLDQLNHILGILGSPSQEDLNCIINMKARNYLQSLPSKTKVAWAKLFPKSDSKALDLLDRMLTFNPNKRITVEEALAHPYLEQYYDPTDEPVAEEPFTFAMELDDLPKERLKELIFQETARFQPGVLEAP
PAK3 (human), sequence (O75914 whole entry, looked up): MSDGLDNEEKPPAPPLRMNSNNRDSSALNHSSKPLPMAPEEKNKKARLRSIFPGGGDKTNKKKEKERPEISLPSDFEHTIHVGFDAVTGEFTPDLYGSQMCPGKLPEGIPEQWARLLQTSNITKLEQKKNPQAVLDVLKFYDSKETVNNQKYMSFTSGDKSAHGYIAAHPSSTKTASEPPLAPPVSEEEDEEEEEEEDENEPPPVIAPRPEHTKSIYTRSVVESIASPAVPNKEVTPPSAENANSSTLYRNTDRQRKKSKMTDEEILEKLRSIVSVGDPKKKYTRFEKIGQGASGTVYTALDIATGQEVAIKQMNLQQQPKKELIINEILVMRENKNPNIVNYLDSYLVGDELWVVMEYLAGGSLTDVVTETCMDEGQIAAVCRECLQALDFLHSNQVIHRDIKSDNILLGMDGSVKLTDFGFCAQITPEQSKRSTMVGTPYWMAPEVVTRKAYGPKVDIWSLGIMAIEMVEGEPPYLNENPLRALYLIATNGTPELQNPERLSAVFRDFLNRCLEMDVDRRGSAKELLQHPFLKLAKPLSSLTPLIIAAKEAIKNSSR
BMPR1B (human), sequence (O00238 whole entry, looked up): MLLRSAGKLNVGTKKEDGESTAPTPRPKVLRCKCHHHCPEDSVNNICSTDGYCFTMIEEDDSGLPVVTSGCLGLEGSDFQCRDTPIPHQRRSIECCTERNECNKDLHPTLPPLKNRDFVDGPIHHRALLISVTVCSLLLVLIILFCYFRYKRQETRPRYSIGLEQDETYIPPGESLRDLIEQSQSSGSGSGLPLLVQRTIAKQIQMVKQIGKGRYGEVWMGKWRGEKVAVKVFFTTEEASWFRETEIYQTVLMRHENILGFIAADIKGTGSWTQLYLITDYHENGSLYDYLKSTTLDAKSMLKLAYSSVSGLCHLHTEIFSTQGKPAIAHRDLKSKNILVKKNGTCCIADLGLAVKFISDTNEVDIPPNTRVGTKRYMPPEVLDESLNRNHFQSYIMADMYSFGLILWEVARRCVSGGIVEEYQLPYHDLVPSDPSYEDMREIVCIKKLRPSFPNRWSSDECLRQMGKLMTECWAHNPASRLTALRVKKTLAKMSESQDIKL
ERBB2 (human), sequence (P04626 whole entry, looked up): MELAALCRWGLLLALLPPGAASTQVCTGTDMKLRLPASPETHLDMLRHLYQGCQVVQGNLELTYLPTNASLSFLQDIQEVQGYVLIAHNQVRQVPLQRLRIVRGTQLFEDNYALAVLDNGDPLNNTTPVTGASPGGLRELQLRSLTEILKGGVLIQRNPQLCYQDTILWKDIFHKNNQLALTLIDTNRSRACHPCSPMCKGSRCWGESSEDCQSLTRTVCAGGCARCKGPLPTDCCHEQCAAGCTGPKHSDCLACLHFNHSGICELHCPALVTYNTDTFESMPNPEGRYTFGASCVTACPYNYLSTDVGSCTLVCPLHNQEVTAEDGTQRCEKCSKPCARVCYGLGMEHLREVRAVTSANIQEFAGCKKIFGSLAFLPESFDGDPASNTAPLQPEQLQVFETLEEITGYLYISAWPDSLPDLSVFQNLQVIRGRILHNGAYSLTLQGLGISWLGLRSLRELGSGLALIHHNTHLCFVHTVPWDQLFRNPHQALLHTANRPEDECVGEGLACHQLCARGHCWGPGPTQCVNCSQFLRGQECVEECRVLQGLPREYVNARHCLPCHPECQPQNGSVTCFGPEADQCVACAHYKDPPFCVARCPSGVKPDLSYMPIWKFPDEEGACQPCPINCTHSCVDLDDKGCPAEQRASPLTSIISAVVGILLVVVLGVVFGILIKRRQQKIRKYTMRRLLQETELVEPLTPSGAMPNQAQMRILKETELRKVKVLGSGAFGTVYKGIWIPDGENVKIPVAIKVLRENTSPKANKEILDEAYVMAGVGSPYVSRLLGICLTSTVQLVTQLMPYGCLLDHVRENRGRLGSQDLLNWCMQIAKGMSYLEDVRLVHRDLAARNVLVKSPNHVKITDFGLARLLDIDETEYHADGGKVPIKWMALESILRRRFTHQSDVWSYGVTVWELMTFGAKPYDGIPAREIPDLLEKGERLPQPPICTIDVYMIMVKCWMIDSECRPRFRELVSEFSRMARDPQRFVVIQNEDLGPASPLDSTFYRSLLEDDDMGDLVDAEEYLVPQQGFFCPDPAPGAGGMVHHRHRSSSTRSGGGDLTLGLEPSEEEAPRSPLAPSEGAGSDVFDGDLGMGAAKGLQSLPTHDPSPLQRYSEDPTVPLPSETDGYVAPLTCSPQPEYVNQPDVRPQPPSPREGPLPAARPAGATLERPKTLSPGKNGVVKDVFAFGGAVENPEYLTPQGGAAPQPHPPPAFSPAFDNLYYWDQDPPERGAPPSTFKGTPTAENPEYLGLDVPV
KDR (human), sequence (P35968 whole entry, looked up): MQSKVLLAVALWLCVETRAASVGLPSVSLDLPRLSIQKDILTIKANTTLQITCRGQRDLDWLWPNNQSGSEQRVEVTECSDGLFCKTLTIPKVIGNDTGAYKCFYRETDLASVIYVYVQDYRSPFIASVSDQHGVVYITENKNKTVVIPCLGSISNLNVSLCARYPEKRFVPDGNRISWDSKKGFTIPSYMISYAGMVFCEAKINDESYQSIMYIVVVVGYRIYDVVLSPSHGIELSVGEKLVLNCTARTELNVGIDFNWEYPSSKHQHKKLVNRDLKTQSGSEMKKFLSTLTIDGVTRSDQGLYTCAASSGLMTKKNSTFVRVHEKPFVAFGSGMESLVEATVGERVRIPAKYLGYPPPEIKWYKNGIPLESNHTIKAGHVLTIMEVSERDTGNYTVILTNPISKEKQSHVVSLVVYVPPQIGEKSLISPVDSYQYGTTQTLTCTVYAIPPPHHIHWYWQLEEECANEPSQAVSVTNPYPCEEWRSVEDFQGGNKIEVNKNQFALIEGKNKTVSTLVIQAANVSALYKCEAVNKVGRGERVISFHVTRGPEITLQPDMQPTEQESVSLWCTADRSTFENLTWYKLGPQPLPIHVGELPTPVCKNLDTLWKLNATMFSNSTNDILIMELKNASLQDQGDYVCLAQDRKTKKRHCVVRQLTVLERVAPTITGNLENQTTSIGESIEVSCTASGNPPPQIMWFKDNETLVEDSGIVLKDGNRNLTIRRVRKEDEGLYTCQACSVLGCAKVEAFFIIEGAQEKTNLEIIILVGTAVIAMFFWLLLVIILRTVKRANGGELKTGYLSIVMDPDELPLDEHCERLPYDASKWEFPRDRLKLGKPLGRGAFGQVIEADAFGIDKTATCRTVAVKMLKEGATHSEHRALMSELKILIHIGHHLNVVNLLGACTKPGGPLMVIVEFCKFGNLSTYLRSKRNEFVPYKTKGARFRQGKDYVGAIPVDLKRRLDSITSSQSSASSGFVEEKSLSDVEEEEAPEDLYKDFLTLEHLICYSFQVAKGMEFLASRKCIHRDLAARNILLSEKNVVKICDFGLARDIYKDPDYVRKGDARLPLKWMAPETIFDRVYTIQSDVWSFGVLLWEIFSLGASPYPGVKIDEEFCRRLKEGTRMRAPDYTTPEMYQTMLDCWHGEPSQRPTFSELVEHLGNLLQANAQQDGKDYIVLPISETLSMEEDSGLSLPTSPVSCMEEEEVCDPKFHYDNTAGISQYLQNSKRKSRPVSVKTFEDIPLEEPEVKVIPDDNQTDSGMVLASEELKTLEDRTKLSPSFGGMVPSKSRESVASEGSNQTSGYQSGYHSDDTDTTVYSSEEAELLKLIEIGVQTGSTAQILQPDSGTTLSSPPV
MAP4K5 (human), sequence (Q9Y4K4 whole entry, looked up): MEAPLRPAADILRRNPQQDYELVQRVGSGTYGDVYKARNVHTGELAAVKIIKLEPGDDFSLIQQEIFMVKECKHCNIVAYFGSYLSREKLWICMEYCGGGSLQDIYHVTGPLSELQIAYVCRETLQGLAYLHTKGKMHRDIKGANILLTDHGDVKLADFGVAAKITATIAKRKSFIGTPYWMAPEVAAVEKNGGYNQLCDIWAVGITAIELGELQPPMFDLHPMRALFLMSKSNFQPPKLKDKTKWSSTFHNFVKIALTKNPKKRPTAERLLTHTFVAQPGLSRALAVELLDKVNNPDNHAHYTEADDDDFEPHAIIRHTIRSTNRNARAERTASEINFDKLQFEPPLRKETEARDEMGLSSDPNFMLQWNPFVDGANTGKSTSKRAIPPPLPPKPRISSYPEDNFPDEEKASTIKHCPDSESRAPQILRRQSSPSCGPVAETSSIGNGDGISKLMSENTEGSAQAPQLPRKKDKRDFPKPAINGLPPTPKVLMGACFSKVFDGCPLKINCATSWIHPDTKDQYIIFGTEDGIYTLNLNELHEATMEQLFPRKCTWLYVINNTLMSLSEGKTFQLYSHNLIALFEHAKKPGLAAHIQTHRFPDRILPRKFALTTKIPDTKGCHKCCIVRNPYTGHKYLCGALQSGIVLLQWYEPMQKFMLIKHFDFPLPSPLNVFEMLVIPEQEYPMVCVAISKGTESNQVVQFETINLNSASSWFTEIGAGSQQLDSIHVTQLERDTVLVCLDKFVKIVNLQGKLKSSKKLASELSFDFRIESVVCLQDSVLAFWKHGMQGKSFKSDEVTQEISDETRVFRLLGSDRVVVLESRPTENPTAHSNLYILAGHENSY

## Nc1cc(C(F)(F)F)c(-c2cc(N3CCOCC3)nc(N3CCOCC3)n2)cn1
STK17A (human)
  inhibition of binding: 0%
MAPK1 (human)
  inhibition of binding: 0%
AURKB (human)
  inhibition of binding: 0%
OXSR1 (human)
  inhibition of binding: 17%
ERBB2 (human)
  inhibition of binding: 24%
MAP4K5 (human)
  inhibition of binding: 0%
STK3 (human)
  inhibition of binding: 0%
KDR (human)
  inhibition of binding: 0%
CIT (human)
  inhibition of binding: 0%
NTRK1 (human)
  inhibition of binding: 4%
ICK (human)
  inhibition of binding: 0%
PRKD3 (human)
  inhibition of binding: 11%
[1]
  inhibition of binding: 2%
ACVR1 (human)
  inhibition of binding: 0%
PAK3 (human)
  inhibition of binding: 0%
BTK (human)
  inhibition of binding: 6%
PAK4 (human)
  inhibition of binding: 13%
SYK (human)
  inhibition of binding: 0%
TLK2 (human)
  inhibition of binding: 13%
BMPR1B (human)
  inhibition of binding: 0%
[2]
  inhibition of binding: 12%
[3]
  inhibition of binding: 0%
PAK7 (human)
  inhibition of binding: 0%
STK32B (human)
  inhibition of binding: 11%
CSNK2A1 (human)
  inhibition of binding: 0%
RIOK1 (human)
  inhibition of binding: 11%
[4]
  inhibition of binding: 0%
MET (human)
  inhibition of binding: 12%
[5]
  inhibition of binding: 0%
ABL1 (human)
  inhibition of binding: 0%
STK25 (human)
  inhibition of binding: 0%
AKT1 (human)
  inhibition of binding: 0%
EPHB1 (human)
  inhibition of binding: 0%
TGFBR1 (human)
  inhibition of binding: 4%
[6]
  inhibition of binding: 12%
MAPK3 (human)
  inhibition of binding: 1%
SLK (human)
  inhibition of binding: 0%
PKMYT1 (human)
  inhibition of binding: 0%
TXK (human)
  inhibition of binding: 0%
LYN (human)
  inhibition of binding: 0%
